Results: patent US8471032B2, “Benzimidazole compound in crystal form and salt thereof” (Mitsubishi Tanabe Pharma Corporation, priority 2008, dated 2013)
Converted amounts (≈) assume the structure as drawn.

Assays:
[1] = Solubility in water at 37° C. (HPLC, calibration curve method); format: physicochemical; conditions: shaken for 4 hr
Description: The solubility of the obtained compounds in water at 37° C. was measured under the following conditions. An adequate amount of each sample was taken, water was added to each sample, and the mixture was shaken at 37° C. for 4 hr. The supernatant was filtered through a filter, and diluted with a mixed solution of TFA/acetonitrile/water=(0.05:30:70) as necessary to give a sample solution. The concentration (mg/ml) of the sample solution was measured by high performance liquid chromatography (HPLC) with a calibration curve method, and taken as the solubility in water at 37° C.
apparatus: HPLC System Class-VP (SHIMADZU Corporation)
detector: photodiode array detector
measurement wavelength range: 200-370 nm
column: Inertsil ODS-3V (4.6 mm9×150 mm)
column temperature: 40° C.
mobile phase: SOLUTION A 0.05% aqueous trifluoroacetic acid solution • SOLUTION B 0.05% trifluoroacetic acid-acetonitrile solution • A:B=70:30 (Isocratic Elution)

[2] = Water adsorption measurement (DVS-1 water adsorption apparatus), index of hygroscopicity; format: physicochemical; conditions: relative humidity changed within 0% to 95%; amount of change based on the weight at relative humidity 0%
Description: The water adsorption measurement, which becomes an index of hygroscopicity, was performed using a DVS-1 type water adsorption apparatus (manufactured by SMS) under the following conditions. Using a sample (about 6-12 mg), the relative humidity was changed within the relative humidity range of 0% to 95%. The weight change was recorded for each predetermined relative humidity, and converted to the amount of change (%) based on the weight at relative humidity 0%. […] As to this compound, the zero point was amended based on the moisture value of the sample measured by the Karl Fischer's method, and the weight change was converted to the amount of change (%).

SMILES | solubility in water [1] | weight increase (water adsorption / moisture absorption) [2]
CNC(=O)Cn1c(=O)n(C2CCN([C@@H]3Cc4cccc5cccc3c45)CC2)c2ccccc21 [Example 17, (R)-2-{3-[1-(acenaphthen-1-yl)piperidin-4-yl]-2,3-dihydro-2-oxo-benzimidazol-1-yl}-N-methylacetamide] | 10 µg/mL (≈ 22.7 µM) | –
CNC(=O)Cn1c(=O)n(C2CCN([C@@H]3Cc4cccc5cccc3c45)CC2)c2ccccc21 [Example 10, (R)-2-{3-[1-(acenaphthen-1-yl)piperidin-4-yl]-2,3-dihydro-2-oxo-benzimidazol-1-yl}-N-methylacetamide] | 300 µg/mL (≈ 681 µM) | 1.3%
CNC(=O)Cn1c(=O)n(C2CCN([C@@H]3Cc4cccc5cccc3c45)CC2)c2ccccc21 [Example 2, (R)-2-{3-[1-(acenaphthen-1-yl)piperidin-4-yl]-2,3-dihydro-2-oxo-benzimidazol-1-yl}-N-methylacetamide] | – | 0.2%
CNC(=O)Cn1c(=O)n(C2CCN([C@@H]3Cc4cccc5cccc3c45)CC2)c2ccccc21 [Example 6, (R)-2-{3-[1-(acenaphthen-1-yl)piperidin-4-yl]-2,3-dihydro-2-oxo-benzimidazol-1-yl}-N-methylacetamide] | > 2000 µg/mL | 0.4%
CNC(=O)Cn1c(=O)n(C2CCN([C@@H]3Cc4cccc5cccc3c45)CC2)c2ccccc21 [Example 1, (R)-2-{3-[1-(acenaphthen-1-yl)piperidin-4-yl]-2,3-dihydro-2-oxo-benzimidazol-1-yl}-N-methylacetamide] | > 2000 µg/mL | 0.2%
CNC(=O)Cn1c(=O)n(C2CCN([C@@H]3Cc4cccc5cccc3c45)CC2)c2ccccc21 [Example 16, (R)-2-{3-[1-(acenaphthen-1-yl)piperidin-4-yl]-2,3-dihydro-2-oxo-benzimidazol-1-yl}-N-methylacetamide] | 10 µg/mL (≈ 22.7 µM) | –
CNC(=O)Cn1c(=O)n(C2CCN([C@@H]3Cc4cccc5cccc3c45)CC2)c2ccccc21 [Example 8, (R)-2-{3-[1-(acenaphthen-1-yl)piperidin-4-yl]-2,3-dihydro-2-oxo-benzimidazol-1-yl}-N-methylacetamide] | – | 2.0%
